According to ChEMBL document CHEMBL4028910, “Discovery of Small-Molecule Inhibitors of Ubiquitin Specific Protease 7 (USP7) Using Integrated NMR and in Silico Techniques” (J Med Chem, 2017):

target: T1, Ubiquitin carboxyl-terminal hydrolase 7 (Homo sapiens, UniProt Q93009); assay: Inhibition of USP7 in human SJSA cells assessed as increase in ubiquitinated MDM2 level after 16 hrs in presence of MG132 by MSD assay; assay type: cell-based
T1 sequence (Q93009 whole entry): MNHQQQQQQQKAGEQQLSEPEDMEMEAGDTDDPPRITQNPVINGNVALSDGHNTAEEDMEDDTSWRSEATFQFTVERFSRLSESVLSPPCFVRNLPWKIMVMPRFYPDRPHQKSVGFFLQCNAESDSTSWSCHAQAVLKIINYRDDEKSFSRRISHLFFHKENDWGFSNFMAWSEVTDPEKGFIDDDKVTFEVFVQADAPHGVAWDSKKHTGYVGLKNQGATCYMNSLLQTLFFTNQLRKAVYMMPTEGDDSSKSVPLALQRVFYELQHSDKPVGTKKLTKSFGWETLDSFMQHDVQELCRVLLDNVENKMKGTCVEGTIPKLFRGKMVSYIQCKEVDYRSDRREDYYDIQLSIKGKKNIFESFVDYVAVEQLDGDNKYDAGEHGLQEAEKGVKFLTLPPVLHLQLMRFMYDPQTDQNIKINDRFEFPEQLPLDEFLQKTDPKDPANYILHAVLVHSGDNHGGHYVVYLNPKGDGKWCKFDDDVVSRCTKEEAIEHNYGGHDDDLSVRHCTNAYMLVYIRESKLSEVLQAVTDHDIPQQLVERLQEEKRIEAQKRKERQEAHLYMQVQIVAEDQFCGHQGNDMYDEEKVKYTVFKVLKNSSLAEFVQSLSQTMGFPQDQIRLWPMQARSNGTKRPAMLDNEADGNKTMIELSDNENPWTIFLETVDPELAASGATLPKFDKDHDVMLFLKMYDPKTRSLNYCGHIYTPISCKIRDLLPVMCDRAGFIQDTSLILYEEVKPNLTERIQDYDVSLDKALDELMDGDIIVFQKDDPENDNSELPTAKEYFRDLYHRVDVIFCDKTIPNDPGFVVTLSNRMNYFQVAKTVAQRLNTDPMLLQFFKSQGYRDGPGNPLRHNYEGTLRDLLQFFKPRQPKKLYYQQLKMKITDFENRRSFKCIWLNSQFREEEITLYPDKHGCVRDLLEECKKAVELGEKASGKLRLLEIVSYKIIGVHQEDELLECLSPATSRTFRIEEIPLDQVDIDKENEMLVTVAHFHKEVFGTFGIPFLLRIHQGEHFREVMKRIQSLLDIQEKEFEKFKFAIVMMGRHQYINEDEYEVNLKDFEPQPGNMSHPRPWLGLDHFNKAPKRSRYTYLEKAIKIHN

Row | SMILES | EC50 [µM]
1 | Nc1nc(N)c(-c2ccc(O)cc2)cc1-c1ccc(O)cc1 | 36.5
2 | CCc1c(-c2ccc(O)cc2)cnc(N)c1-c1cccc(C#N)c1 | 37.5
3 | CCc1c(-c2ccc3[nH]ncc3c2)cnc(N)c1-c1ccc(O)cc1 | 0.3
4 | CCc1c(-c2ccc(C(=O)NC)nc2)cnc(N)c1-c1ccc(O)cc1 | 2.58

target: T1, Ubiquitin carboxyl-terminal hydrolase 7; assay: Inhibition of native full length C-terminal USP7 (unknown origin) using ubiquitin-Rho110 as substrate incubated for 1 hr by fluorescence assay

Row | SMILES | IC50 [µM]
5 | CC(=O)Nc1cccc(-c2cnc(N)c(-c3ccc(O)cc3)c2)c1 | 15.1
6 | CCc1c(-c2ccc(O)cc2)cnc(N)c1-c1ccc(O)cc1 | 2.5
7 | CC(C)c1c(-c2ccc(O)cc2)cnc(N)c1-c1ccc(O)cc1 | 21.4
8 | CCCc1c(-c2ccc(O)cc2)cnc(N)c1-c1ccc(O)cc1 | 13.6
9 | CCc1c(-c2ccc(O)cc2)cnc(N)c1-c1ccccc1 | 22.4
10 | N#Cc1c(-c2ccc(O)cc2)cnc(N)c1-c1ccc(O)cc1 | > 200
11 | Fc1cccc(OCC2CCNCC2)c1 | > 2000
12 | Nc1ncc(-c2ccccc2Cl)cc1-c1ccc(O)cc1 | 33.2
13 | CCc1c(-c2ccc(C(=O)NC)nc2)cnc(N)c1-c1ccc(O)cc1 | 1.34
14 | Nc1ncc(-c2ccc(O)cc2)cc1-c1ccc(O)cc1 | 11.1
15 | Cc1c(-c2ccc(O)cc2)cnc(N)c1-c1ccc(O)cc1 | 7.6
16 | CCc1c(-c2ccccc2)cnc(N)c1-c1ccc(O)cc1 | 9.6
17 | Oc1ccc(-c2cncc(-c3ccc(O)cc3)c2)cc1 | > 50

Second part, the molecule after the results:

Row | IC50 [µM] | SMILES
18 | 8.5 | Nc1nc(N)c(-c2ccc(O)cc2)cc1-c1ccc(O)cc1
19 | 85.2 | Oc1ccc(-c2nc(C3CCNCC3)co2)cc1
20 | 5.2 | CCc1c(-c2ccc(O)cc2)cnc(N)c1-c1cccc(C#N)c1
21 | 79.2 | CN1CCC(c2noc(-c3ccc(O)cc3)n2)CC1
22 | 0.48 | CCc1c(-c2ccc3cn[nH]c3c2)cnc(N)c1-c1ccc(O)cc1
23 | 18.4 | Oc1ccc(-c2ncc(C3CCNCC3)o2)c(F)c1
24 | 131 | CN1CCC(c2noc(-c3ccc(O)cc3)n2)C1 (stereo unspecified)
25 | 132 | Oc1ccc(-c2nc(C3CCNC3)no2)cc1 (stereo unspecified)
26 | 0.61 | CCc1c(-c2ccc(O)cc2)cnc(N)c1-c1ccc2[nH]ncc2c1
27 | 2.5 | CCc1c(-c2cccc(C#N)c2)cnc(N)c1-c1ccc(O)cc1
28 | 97.7 | Oc1ccc(-c2nc(C3CCNCC3)no2)cc1
29 | 32.8 | Oc1ccc(-c2ncc(C3CCNCC3)o2)cc1

target: T1, Ubiquitin carboxyl-terminal hydrolase 7; assay: Binding affinity to human His-tagged and [15N-13C-2H], delta1[13CH3]-Ile, [13CH3]-Leu/Val and [13CH3]-Met-labeled USP7-catalytic domain (208 to 554 residues) expressed in Escherichia coli Rosetta 2 (DE3) cells by 2D[1H-15N]-based TROSY spectrum NMR analysis

Row | SMILES | Kd [µM]
30 | CN1CCC(c2noc(-c3ccc(O)cc3)n2)CC1 | 12 to 27
31 | Oc1ccc(-c2nc(C3CCNCC3)no2)cc1 | 12 to 27
